Measurements as given in BindingDB's records for patent US20240246984 (Beijing Innocare Pharma Tech, 2024).
pIC50: −log10 of the molar value.

How the values were obtained:
[1] = molecular target: Tyrosine-protein kinase JAK2 (Homo sapiens, UniProt O60674); test: JAK2 Activity Inhibition Assay
Procedure: The enzymatic activity of JAK2 was assessed by detecting the substrate phosphorylation level in a kinase reaction with a homogeneous time-resolved fluorescence (HTRF) kinase detection kit (Cisbio, 62TK0PEC). A reaction buffer contained an enzyme buffer (1×), 5 mM MgCl2, 1 mM DTT and 0.01% Brij35 from the kit; a human recombinant JAK2 protein (Carna Biosciences, 08-045) was diluted to a kinase reaction solution of 0.15 ng/μL with the reaction buffer; a substrate reaction solution contained 2.5 μM ATP and a biotin-labeled tyrosine kinase substrate diluted to 0.25 μM with the reaction buffer; a detection buffer contained 0.1 ng/μL Eu3+ labeled cage antibody (Cisbio, 61T66KLB) and 12.5 nM streptavidin-labeled XL665 (Cisbio, 610SAXLB) in the reaction buffer; the compound was dissolved to 10 μM in DMSO, followed by a serial 4-fold dilution with DMSO to a minimum concentration of 0.061 nM. Each concentration was further diluted 40-fold with the reaction buffer. To a 384-well assay plate (Corning, 3674) were added 4 μL of the compound solutions having a series of concentrations and 2 μL of JAK2 kinase reaction solutions. […] An Envision plate reader (Perkin Elmer) was then used to measure the progress of the reaction at wavelengths of 620 nm and 665 nm.

[2] = molecular target: Non-receptor tyrosine-protein kinase TYK2 (Homo sapiens, UniProt P29597); test: TYK2 Activity Inhibition Assay
Chain of Non-receptor tyrosine-protein kinase TYK2 (P29597 whole entry): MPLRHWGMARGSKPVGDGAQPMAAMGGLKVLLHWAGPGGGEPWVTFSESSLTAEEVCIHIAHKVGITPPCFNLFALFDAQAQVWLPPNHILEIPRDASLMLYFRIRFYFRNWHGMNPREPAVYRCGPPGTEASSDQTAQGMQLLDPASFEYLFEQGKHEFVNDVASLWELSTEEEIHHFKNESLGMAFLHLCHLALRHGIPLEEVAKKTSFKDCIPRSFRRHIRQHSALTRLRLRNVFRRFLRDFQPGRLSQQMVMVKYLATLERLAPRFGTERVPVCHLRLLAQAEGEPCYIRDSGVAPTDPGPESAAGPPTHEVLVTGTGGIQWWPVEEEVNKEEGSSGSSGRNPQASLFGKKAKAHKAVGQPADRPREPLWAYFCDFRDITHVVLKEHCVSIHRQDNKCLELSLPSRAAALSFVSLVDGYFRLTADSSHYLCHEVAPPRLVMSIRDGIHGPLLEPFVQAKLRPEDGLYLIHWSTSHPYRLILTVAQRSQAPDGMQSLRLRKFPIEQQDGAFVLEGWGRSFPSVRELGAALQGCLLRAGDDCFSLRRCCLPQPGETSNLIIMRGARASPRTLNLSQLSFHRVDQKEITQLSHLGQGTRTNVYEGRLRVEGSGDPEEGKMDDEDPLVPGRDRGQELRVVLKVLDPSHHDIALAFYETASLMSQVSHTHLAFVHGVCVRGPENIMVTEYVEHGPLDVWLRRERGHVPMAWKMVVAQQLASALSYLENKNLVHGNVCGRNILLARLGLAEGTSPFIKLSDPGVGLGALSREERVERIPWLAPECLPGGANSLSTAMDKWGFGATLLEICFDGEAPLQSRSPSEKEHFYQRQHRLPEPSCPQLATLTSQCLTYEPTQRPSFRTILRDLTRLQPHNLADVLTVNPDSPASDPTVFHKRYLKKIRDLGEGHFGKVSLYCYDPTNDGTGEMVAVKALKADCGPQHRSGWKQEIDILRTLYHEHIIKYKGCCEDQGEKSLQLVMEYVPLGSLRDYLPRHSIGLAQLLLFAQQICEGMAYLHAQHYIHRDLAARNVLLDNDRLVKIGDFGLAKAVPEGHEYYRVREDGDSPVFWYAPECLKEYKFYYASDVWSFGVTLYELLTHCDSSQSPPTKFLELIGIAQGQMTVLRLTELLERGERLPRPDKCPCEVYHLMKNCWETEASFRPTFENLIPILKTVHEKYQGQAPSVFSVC
Procedure: The enzymatic activity of TYK2 was assessed by detecting the substrate phosphorylation level in a kinase reaction with a homogeneous time-resolved fluorescence (HTRF) kinase detection kit (Cisbio, 62TK0PEC). A reaction buffer contained an enzyme buffer (1×), 5 mM MgCl2, 1 mM DTT and 0.01% Brij35 from the kit; a human recombinant TYK2 protein (Carna Biosciences, 08-147) was diluted to a kinase reaction solution of 0.25 ng/μL with the reaction buffer; a substrate reaction solution contained 11.25 μM ATP and a biotin-labeled tyrosine kinase substrate diluted to 0.5 μM with the reaction buffer; a detection buffer contained 0.1 ng/μL Eu3+ labeled cage antibody (Cisbio, 61T66KLB) and 25 nM streptavidin-labeled XL665 (Cisbio, 610SAXLB) in the reaction buffer; the compound was dissolved to 10 μM in DMSO, followed by a serial 4-fold dilution with DMSO to a minimum concentration of 0.061 nM. Each concentration was further diluted 40-fold with the reaction buffer. To a 384-well assay plate (Corning, 3674) were added 4 μL of the compound solutions having a series of concentrations and 2 μL of kinase reaction solutions. After being mixed evenly, the mixtures were incubated at room temperature for 15 minutes, and then 4 μL of the substrate reaction solutions were added.

Chain of Tyrosine-protein kinase JAK2 (O60674 whole entry): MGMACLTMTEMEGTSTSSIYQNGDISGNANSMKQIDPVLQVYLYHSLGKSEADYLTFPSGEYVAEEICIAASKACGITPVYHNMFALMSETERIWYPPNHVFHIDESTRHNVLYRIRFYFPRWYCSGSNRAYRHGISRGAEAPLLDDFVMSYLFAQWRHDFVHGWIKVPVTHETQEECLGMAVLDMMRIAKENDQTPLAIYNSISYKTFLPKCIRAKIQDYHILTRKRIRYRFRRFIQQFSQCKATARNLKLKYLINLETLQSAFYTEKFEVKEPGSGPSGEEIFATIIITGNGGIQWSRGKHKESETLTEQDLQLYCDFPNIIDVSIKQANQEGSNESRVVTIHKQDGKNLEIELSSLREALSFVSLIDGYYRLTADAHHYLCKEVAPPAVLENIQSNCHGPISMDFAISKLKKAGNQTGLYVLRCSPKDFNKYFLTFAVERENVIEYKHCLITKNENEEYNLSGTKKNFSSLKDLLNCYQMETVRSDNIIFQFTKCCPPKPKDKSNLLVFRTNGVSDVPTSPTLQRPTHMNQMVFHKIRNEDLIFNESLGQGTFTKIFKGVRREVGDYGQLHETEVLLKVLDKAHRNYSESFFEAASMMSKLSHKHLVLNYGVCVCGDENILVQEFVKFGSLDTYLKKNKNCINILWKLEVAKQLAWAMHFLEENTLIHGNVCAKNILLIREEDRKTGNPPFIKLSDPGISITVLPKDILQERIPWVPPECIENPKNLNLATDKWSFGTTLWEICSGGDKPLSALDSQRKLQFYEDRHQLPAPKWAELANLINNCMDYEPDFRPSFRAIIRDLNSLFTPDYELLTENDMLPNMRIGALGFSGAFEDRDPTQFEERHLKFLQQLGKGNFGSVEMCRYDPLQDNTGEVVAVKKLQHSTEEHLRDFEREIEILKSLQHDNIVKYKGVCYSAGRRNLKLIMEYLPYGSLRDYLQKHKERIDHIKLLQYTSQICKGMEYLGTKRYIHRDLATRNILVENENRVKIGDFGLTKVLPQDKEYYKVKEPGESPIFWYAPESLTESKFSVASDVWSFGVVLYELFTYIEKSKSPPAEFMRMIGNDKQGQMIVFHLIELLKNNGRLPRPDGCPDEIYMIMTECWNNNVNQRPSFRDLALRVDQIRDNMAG

O=C1NCCn2c(-c3c(F)cccc3F)nc(Nc3ccc(C(=O)N4CCOCC4)cc3)c21 [US20240246984, Compound 2.]
pIC50 [1]: 8.72 | pIC50 [2]: 9.70
